Like-named read-outs stand apart in the source and are kept apart here.
Target: T1, COX2 (Homo sapiens, UniProt P35354)
T1 construct: purchased Sino Biological Co. (Beijing, China)
T1 sequence (P35354 18-604): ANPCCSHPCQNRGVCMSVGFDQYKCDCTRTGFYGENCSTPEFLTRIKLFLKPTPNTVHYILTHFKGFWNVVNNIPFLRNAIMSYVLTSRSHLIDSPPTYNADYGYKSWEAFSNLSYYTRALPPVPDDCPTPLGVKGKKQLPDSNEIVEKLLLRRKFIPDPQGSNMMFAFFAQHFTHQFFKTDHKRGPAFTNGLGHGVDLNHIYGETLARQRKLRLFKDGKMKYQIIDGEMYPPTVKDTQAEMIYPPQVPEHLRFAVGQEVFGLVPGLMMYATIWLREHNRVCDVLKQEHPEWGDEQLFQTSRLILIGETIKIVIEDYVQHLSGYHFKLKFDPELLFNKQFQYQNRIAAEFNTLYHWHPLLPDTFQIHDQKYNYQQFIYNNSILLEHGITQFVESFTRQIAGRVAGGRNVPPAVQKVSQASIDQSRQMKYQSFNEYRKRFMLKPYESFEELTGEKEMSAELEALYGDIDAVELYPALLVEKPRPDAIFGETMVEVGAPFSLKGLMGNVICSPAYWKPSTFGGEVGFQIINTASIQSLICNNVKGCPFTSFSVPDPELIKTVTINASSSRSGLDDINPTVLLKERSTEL
Test: Fluorescence quenching of COX2 (Stern-Volmer, double logarithm, thermodynamic parameters)
Type: binding
Conditions: for KA relative to the control compound: 298 K and 310 K; for Kq (bimolecular quenching constant): Kq = Ksv/τ0; for Kd: read-out: KA (binding constant) (converted); for ΔH (enthalpy change) / ΔS (entropy change): from KA at 298 K and 310 K
From the text: The emitted fluorescence spectra of COX2 solution (6.0 × 10^−8 mol∙L^−1) without and with an increasing concentration of compounds DB2, SC2 or YB2 (7.5 × 10^−6 mol∙L^−1 to 4.5 × 10^−5 mol∙L^−1) at different temperatures are shown in Figure 4a,b, Figure 4c,d or Figure 4e,f, respectively. […] The quenching constant Kq and Stern–Volmer constant Ksv at different temperatures are usually used to identify the quenching mechanisms, static or dynamic. The former is caused by ground-state complex formation, the latter is diffusion. For the static quenching mechanism, the quenching constant decreases with temperature increase. In this part, we calculated the Kq and Ksv values by using a universally accepted Stern–Volmer equation [38]:(1) F0/F=1+Kqτ0[Q]=1+Ksv[Q] where F0 and F are the protein fluorescence intensities in the absence and the presence of quencher (compounds DB2, SC2 or YB2), respectively. Kq = Ksv/ τ0 . τ0 is the fluorescence lifetime of the fluorophore without the quencher ([…]). [Q] is the concentration of quencher. The Stern-Volmer plots of COX2 fluorescence quenching by compounds DB2, SC2 or YB2 are presented in Figure 5a, Figure 5b or Figure 5c, respectively. According to Table 1, the Ksv and Kq values for all three systems (COX2-DB2, COX2-SC2 and COX2-YB2) decreased with increasing temperature. Therefore, we considered that the quenching was static quenching. To further verify that the system was static quenching, dynamic quenching was assumed first.
For the static quenching, we can use the double logarithm equation to obtain the binding constant (KA) and the number of binding sites per protein (n):(2) lgF0−F/F=lgKA+nlg[Q]
There are four main kinds of non-covalent forces between drugs and proteins. These are electrostatic force, hydrogen bonding, hydrophobic force and van der Waals force. The kind of interaction between compounds DB2, SC2 or YB2 and COX2 can be obtained from thermodynamic parameters, including the free energy change (ΔG), enthalpy change (ΔH) and entropy change (ΔS) of the reaction. The three thermodynamic parameters can be obtained according to the published equations [42, 44]:(3) ΔG=−RTlnK (4) lnK2/K1=ΔH(1/T1−1/T2)×1/R (5) ΔG=ΔH−TΔS
The fluorescence intensity of the system was measured with a 1.0 cm quartz cell. COX2 protein was dissolved in PBS for a final concentration of 6.0 × 10^−8 mol∙L^−1. DB2, SC2 or YB2 stock solutions were prepared in singleton at 1.5 × 10^−3 mol∙L^−1 in PBS containing 0.1% DMSO. 2.0 mL COX2 solution was separately titrated by continuing additions of 10 μL compounds DB2, SC2 or YB2 solution). After incubation at 298 K or 310 K, fluorescence quenching spectra were recorded in the region 325-450 nm at a scan rate of 1200 nm∙min^−1. The local environment of Tyr and Trp residues was quite sensitive at 280 nm, so the excitation wavelength was set at this wavelength. Typically, 280 nm is also used to measure the changes in protein tertiary structure. The slit widths of emission and excitation were both fixed at 10 nm. To observe spectra behaviors of Tyr and Trp groups of COX2, the wavelength interval between the excitation and emission wavelengths (Δλ) was set as 15 nm and 60 nm, respectively. Three-dimensional fluorescence spectroscopy was obtained for an excitation range of 200–300 nm and an emission range of 325–400 nm. Appropriate buffer solutions, determined under the same operation conditions, were used as blanks. Each spectrum was recorded three times.

| Structure (SMILES) | Ksv (Stern-Volmer quenching constant) (298 K) | n (number of binding sites per protein) (298 K) | ΔG (free energy change) (298 K) [kJ/mol] | KA relative to the control compound | Kq (bimolecular quenching constant) (298 K) | Kd (298 K) [µM] | Ksv (Stern-Volmer quenching constant) (310 K) | n (number of binding sites per protein) (310 K) | ΔG (free energy change) (310 K) [kJ/mol] | Kq (bimolecular quenching constant) (310 K) | Kd (310 K) [µM] | ΔH (enthalpy change) [kJ/mol] | ΔS (entropy change) [J∙K^−1] |
| --- | --- | --- | --- | --- | --- | --- | --- | --- | --- | --- | --- | --- | --- |
| CCCCc1ccc(C(=O)c2c(Br)cc(O)c(O)c2O)cc1 [DB2] | 1.43 ± 0.188 ×10^4 L∙mol^−1 | 1.10 ± 0.0208 | -25.9 ± 0.280 | approximately an order of magnitude larger | 1.43 ± 0.188 ×10^12 L∙mol^−1∙S^−1 | 28.2 | 1.14 ± 0.380 ×10^4 L∙mol^−1 | 1.03 ± 0.0633 | -24.6 ± 0.561 | 1.14 ± 0.380 ×10^12 L∙mol^−1∙S^−1 | 73.1 | -61.6 ± 8.20 | −120 ± 28.1 |
| CC(C)(C)c1ccc(C(=O)c2c(Cl)cc(O)c(O)c2O)cc1 [SC2] | 2.31 ± 0.988 ×10^4 L∙mol^−1 | 1.01 ± 0.0469 | -25.0 ± 0.229 | approximately an order of magnitude larger | 2.31 ± 0.988 ×10^12 L∙mol^−1∙S^−1 | 41.7 | 2.07 ± 1.03 ×10^4 L∙mol^−1 | 1.02 ± 0.0731 | -25.7 ± 0.599 | 2.07 ± 1.03 ×10^12 L∙mol^−1∙S^−1 | 45.7 | -6.74 ± 9.11 | 61.2 ± 31.3 |
| CC(C)Cc1ccc(C(=O)c2c(Br)cc(O)c(O)c2O)cc1 [YB2] | 3.49 ± 1.69 ×10^4 L∙mol^−1 | 1.07 ± 0.0551 | -27.4 ± 0.101 | approximately an order of magnitude larger | 3.49 ± 1.69 ×10^12 L∙mol^−1∙S^−1 | 15.7 | 2.58 ± 0.562 ×10^4 L∙mol^−1 | 1.07 ± 0.0306 | -27.7 ± 0.318 | 2.58 ± 0.562 ×10^12 L∙mol^−1∙S^−1 | 21.5 | -20.7 ± 6.48 | 22.6 ± 21.9 |

From PMC8587043, “An Investigation into the Interaction between Double Hydroxide-Based Antioxidant Benzophenone Derivatives and Cyclooxygenase 2” (Molecules, 2021)
